The source of these data is article PMC8795383, “Docking-guided rational engineering of a macrolide glycosyltransferase glycodiversifies epothilone B” (Communications Biology, 2022).

The structures appear in SMILES notation. ≈ marks a conversion by molar mass, not a printed value. Read-outs that look alike come from different tables or passages of the source.

The target of one series is T1, BsGT-1 F231S (Bacillus subtilis, UniProt O34539, F231S).
T1 construct: made in house; host or cells: E. coli BL21 (DE3)
Nature of the series: Glycosylation kinetics, BsGT-1 F231S mutant. The conditions noted are these: EpoB converted to 1h, sugar donor 2h. The class given is biochemical. How it is done:
(§1) Kinetic parameters of BsGT-1 and its mutants for the glycosylation of epothilone B were measured in a reaction mixture (50 μl) containing 20 μg/mL protein, saturated sugar donors, different concentrations of epothilone B, and 50 mM Tris–HCl buffer (50 mM Tris–HCl, pH 7.5, 10 mM MgCl2) at 37°C for 10 min in triplicate. The kinetic values were determined by fitting the Michaelis–Menten curve to the data using the nonlinear regression method (Supplementary Figs. 13–14).

A further series addresses T2, BsGT-1 I62A (Bacillus subtilis, UniProt O34539, I62A).
T2 construct: made in house; host or cells: E. coli BL21 (DE3)
In kind it is biochemical. The following applies: EpoB converted to 1a, sugar donor 2a. On the procedure:
as §1

In a further series the target is T3, BsGT-1 M296A (Bacillus subtilis, UniProt O34539, M296A).
T3 construct: made in house; host or cells: E. coli BL21 (DE3)
Description: Glycosylation kinetics, BsGT-1 M296A mutant. The class given is biochemical. The following applies: EpoB converted to 1i, sugar donor 2i. On the procedure:
as §1

For another series, the target named is T4, BsGT-1 Q318C (Bacillus subtilis, UniProt O34539, Q318C).
T4 construct: made in house; host or cells: E. coli BL21 (DE3)
Nature of the series: Glycosylation kinetics, BsGT-1 Q318C mutant. The class given is biochemical. The following applies: EpoB converted to 1e, sugar donor 2e. On the procedure:
as §1

The nature of the next series: physchem. The following applies: water. In kind it is physicochemical. How it is done:
The water solubility of EpoB and its glycosides was determined using the minimum shake-flask solubility method[26],[75].

Series [1] concerns liver carcinoma cell line HepG2. Nature of the series: MTT antitumor assay. In kind it is cell-based, human. The text has this:
(§2) NDP-glucose (UDPG, ADPG, TDPG, and GDPG), UDP-N-acetylglucosamine (UDP-GlcNAc), UDP-galactose (UDP-Gal), and UDP-glucuronic acid (UDP-GlcA) were purchased from Sigma-Aldrich (St. Louis, MO, USA). UDP-GlcNAz, UDP-GalNAz, UDP-GlcNTFA, UDP-GalNTFA, UDP-GalNAc, UDP-GalA, CMP-Neu5Ac, GDP-Fuc and GDP-Man were kindly provided by Professor Junqiang Fang[59]–[63]. Epothilone B was purchased from Zhejiang Hisun Pharmaceutical Co., Ltd. The human liver carcinoma cell line HepG2 and human hepatocyte cell line HL-7702 were purchased from Gaining (Gaining Bio. Co., Ltd, Shanghai, China). The cells were cultivated in T-25 flasks in a Thermo Scientific CO2 incubator in a humidified environment at 37°C and 5% CO2. HepG2 cells were preserved in DMEM (Gibco, Thermo Fisher Scientific, Waltham, MA, USA), while HL-7702 cells were preserved in RPMI-1640 (Gibco, Thermo Fisher Scientific, Waltham, MA, USA). All cultures contained 10% fetal calf serum and 1% penicillin C/streptomycin. All chemicals and reagents are of analytical grade.
(§3) By using the MTT colorimetric assay, the antitumor and cytotoxicity of EpoB and its glucosides were tested against the liver carcinoma cell line HepG2 and hepatocyte cell line HL-7702, respectively. The cells were seeded in a 96-well microtiter plate, and the wall-attached cells were treated with varying concentrations of drugs by dilution from 300 μM to 0.1 μM for EpoB glycosides (dissolved in DMSO). After 48 h of incubation with the test compounds, the cultures were treated with MTT (2 mg/mL) solution, and the cells were incubated for an additional 4 h at 37°C until a purple precipitate was visible. The purple formazan crystals were dissolved in DMSO, and the absorbance of each sample was measured at 492 nm using a microplate reader. All MTT assay experiments were performed in triplicate, and IC50 values were calculated using GraphPad Prism software (Version 6.01)[26].
(Tetrazolium dyes change colour on reduction, which living cells bring about.)

Series [2] concerns hepatocyte cell line HL-7702. Nature of the series: MTT cytotoxicity assay. The class given is cell-based, human.
Source text: as §2, §3

Series [3] has as its system HepG2 cells. Nature of the series: Cellular intake assay (HPLC-DAD). The conditions noted are these: HepG2, 5 μM, 1 h. In kind it is in vitro ADME, human. On the procedure: HepG2 cells (1 × 10^5−1 × 10^6 cells/mL) were cultivated overnight at 37°C and then treated with 5 μM EpoB and glycosides for 1 h. After removing the supernatant, the cells were sequentially rinsed with PBS buffer, trypsinized, and then washed with DMEM. Next, the cells were suspended in acetone, disrupted by ultrasonication, and centrifuged at 12000 rpm for 10 min to remove the debris. The resulting supernatants were dried with nitrogen and then redissolved in 200 μL of methanol. Finally, the compounds were analyzed by HPLC-DAD at 249 nm. Each experiment was conducted in three replicates. The concentrations of EpoB and its glycosides (cellular intake) were calculated based on the linear fitting regression equations of the HPLC peak areas.

The test system of series [4] is HepG2 cells. Description: Immunofluorescence confocal imaging of tubulin. In kind it is cell-based, human. The following applies: HepG2, 24 h. On the procedure:
Freshly trypsinized HepG2 cells (1 × 10^4−1 × 10^5) were seeded in a 12-well plate and cultivated for 24 h with DMEM (Gibco, Thermo Fisher Scientific, Waltham, MA, USA). Cells were treated with EpoB and 1a at different concentrations (50 nM, 500 nM, and 5 μM) according to the IC50 values for 24 h. The supernatants were removed, and the cells were washed with PBS buffer 2–3 times. The cells were further fixed with 4% paraformaldehyde for 1 h and then permeabilized with 0.2% Triton X-100 (diluted in PBS buffer) for 10 min. Next, the cells were blocked with bovine serum albumin (BSA) for 30 min and incubated with a primary antibody against β-tubulin (1:50, diluted in 2% BSA, β-tubulin Rabbit Monoclonal Antibody, Beyotime Biotechnology) for 1 h at room temperature. After that, the cells were treated with Alexa Fluor 488 goat anti-rabbit IgG (H + L) (secondary antibody, 1:500, diluted in 2% BSA, Beyotime Biotechnology) for another 1 h. The supernatants were removed, the cells were washed, and the nuclei were labeled with DAPI for 10 min. Images were collected using an Olympus BX81 fluorescence microscope system (Olympus, Tokyo, Japan) and a confocal microscope (UltraVIEW®VoX).

[5] abbreviates: Homo sapiens, HepG2, 48 h, read-out: IC50 HepG2, MTT, 48 h.
Setting [6] is: read-out: IC50 HepG2, MTT, 48 h.
The mark [7] stands for this setting: Homo sapiens, L02, 48 h, read-out: IC50 HL-7702, MTT, 48 h.
[8] abbreviates: read-out: IC50 HL-7702, MTT, 48 h.
Setting [9] is: 25 °C, thermodynamic from solid, read-out: Solubility.

A word on the Km: it is the concentration of substrate that gives half-maximal velocity. What is called kcat is the maximal rate divided by the concentration of active sites. As a reminder, the solubility is how much of the substance goes into solution per volume. One may read the IC50 as the point on the concentration scale where inhibition reaches its midpoint.

In the case of `C/C(=C\c1csc(C)n1)[C@@H]1C[C@@H]2O[C@]2(C)CCC[C@H](C)[C@H](O)[C@@H](C)C(=O)C(C)(C)[C@@H](O)CC(=O)O1` [EpoB, epothilone B], the Michaelis-Menten constant (Km) came to 127 ± 12.9 µM on BsGT-1 F231S, 43.6 ± 4.16 µM on BsGT-1 I62A, 147 ± 17 µM on BsGT-1 M296A and 95.9 ± 7.98 µM on BsGT-1 Q318C. Also, the kcat at BsGT-1 F231S worked out at 4.34 ± 0.2 min⁻¹; at BsGT-1 I62A it was 23.85 ± 1.38 min⁻¹; on BsGT-1 M296A it was 3.33 ± 0.18 min⁻¹; on BsGT-1 Q318C it was 9.87 ± 0.22 min⁻¹. Further, in “physchem” (thermodynamic from solid, 25°C, read-out: Solubility), the solubility turned out to be 190 ± 30 µg/mL (≈ 0.374 mM). For the same compound, the IC50 in series [1] (setting [5]) was under 0.002 µM; in series [1] (setting [6]), 0.00139 ± 0.0003 µM; in series [2] (setting [7]) it was under 0.003 µM; in [2] (setting [8]), 0.00293 ± 0.00053 µM.

With `CC(=Cc1csc(C)n1)C1CC2OC2(C)CCCC(C)C(OC2OC(CO)C(O)C(O)C2O)C(C)C(=O)C(C)(C)C(O)CC(=O)O1` (stereo not shown) [1i], in the series “physchem” (25°C), the solubility was 3370 ± 550 µg/mL (≈ 5.03 mM). Besides, the “cellular intake rate, lower than that of EpoB” value in the series with HepG2 cells [3] is given as 8 fold. The “activity higher than that of glucose-modified EpoB (1a)” value in series [1] (HepG2, relative to 1a) is listed as about 10 fold. The IC50 in [1] (setting [6]) was determined as 1.09 ± 0.26 µM; in series [2] (setting [8]) it was 9.13 ± 1.02 µM.

`C/C(=C\c1csc(C)n1)[C@@H]1C[C@@H]2O[C@]2(C)CCC[C@H](C)[C@H](O[C@@H]2O[C@H](CO)[C@@H](O[C@@H]3O[C@H](CO)[C@@H](O)[C@H](O)[C@H]3O[C@@H]3O[C@H](CO)[C@@H](O)[C@H](O)[C@H]3O)[C@H](O)[C@H]2O)[C@@H](C)C(=O)C(C)(C)[C@@H](O)CC(=O)O1` [1d, epothilone B 7-O-β-D-glucosyl-(1 → 2)-β-D-glucosyl-(1 → 4)-β-D glucoside]: the solubility in the series “physchem” (25°C) is 184830 ± 3500 µg/mL (≈ 186 mM). Besides, the IC50 in series [1] (MTT, 48 h, read-out: IC50 HepG2) was found to be 38.2 ± 2.41 µM; in series [2] (MTT, 48 h, read-out: IC50 HL-7702), 42.8 ± 1.15 µM.

As for `CC(=O)NC1C(OC2C(C)CCCC3(C)OC3CC(C(C)=Cc3csc(C)n3)OC(=O)CC(O)C(C)(C)C(=O)C2C)OC(CO)C(O)C1O` (stereo not shown) [1e], the solubility in “physchem” (setting [9]) turned out to be 8220 ± 930 µg/mL (≈ 11.6 mM). Also, the IC50 in series [1] (setting [5]) came to 19.8 ± 0.88 µM; in series [2] (setting [7]), 31.1 ± 3.77 µM.

With `CC(=Cc1csc(C)n1)C1CC2OC2(C)CCCC(C)C(OC2OC(CO)C(O)C(O)C2O)C(C)C(=O)C(C)(C)C(O)CC(=O)O1` (stereo not drawn) [1a, EpoB 7-O-β-D glucoside], the “penetration into tumor cells and interaction with tubulin” value in the series with HepG2 cells [4] is “could penetrate into the tumor cells and interact with tubulin”. This compound came in with a solubility in “physchem” (25°C) of 1550 ± 90 µg/mL (≈ 2.31 mM). In addition, the “cellular intake rate, lower than that of EpoB” value in the series on HepG2 cells [3] turned out to be 12 fold. The IC50 is 9.84 ± 0.57 µM in series [1] (setting [6]) and 27.6 ± 1.76 µM in series [2] (setting [8]).

`CC(=Cc1csc(C)n1)C1CC2OC2(C)CCCC(C)C(OC2OC(CO)C(O)C(O)C2OC2OC(CO)C(O)C(O)C2O)C(C)C(=O)C(C)(C)C(O)CC(=O)O1` [1c, EpoB 7-O-β-D-glucosyl-(1 → 2)-β-D glucoside]: in the series “physchem” (setting [9]), the solubility is 83000 ± 1540 µg/mL (≈ 99.8 mM). Moreover, the IC50 in series [1] (setting [5]) was determined as 34.2 ± 4.16 µM; in series [2] (setting [7]), 46.6 ± 0.48 µM.

Turning to `CC(=Cc1csc(C)n1)C1CC2OC2(C)CCCC(C)C(OC2OC(CO)C(O)C(OC3OC(CO)C(O)C(O)C3O)C2O)C(C)C(=O)C(C)(C)C(O)CC(=O)O1` [1b, EpoB 7-O-β-D-glucosyl-(1 → 3)-β-D glucoside], in the series “physchem” (setting [9]), the solubility was determined as 86400 ± 1450 µg/mL (≈ 104 mM). The IC50 in [1] (setting [5]) is over 100 µM.

With `CC(=Cc1csc(C)n1)C1CC2OC2(C)CCCC(C)C(OC2OC(CO)C(O)C(O)C2NC(=O)CN=[N+]=[N-])C(C)C(=O)C(C)(C)C(O)CC(=O)O1` (stereo not shown) [1h], in “physchem” (setting [9]), the solubility turned out to be 4340 ± 540 µg/mL (≈ 5.77 mM). For the same compound, the IC50 was determined as 30.2 ± 2.91 µM in series [1] (setting [5]) and 40.4 ± 1.73 µM in series [2] (setting [7]).
